Measured values from patent US6579849B2, “Antibiotic peptides from bovine milk” (HaemoPep Pharma GmbH, priority 1998, dated 2003).
Like-named read-outs stand apart in the source and are kept apart here.

Key:
[1] = system: S. carnosus; assay: Preincubation experiment (determination of CFU); assay type: cell-based, Staphylococcus carnosus; conditions: incubated at 37° C. for 120 min, interpolated from FIG. 3
Method: (§1) Exponentially grown bacteria with a density corresponding to an A600 of 0.4 to 0.6, were initially diluted 1:10^5 in 10 mM phosphate buffer (Na—P, pH 7.2) or phosphate buffered saline (PBS, pH 7.4) and incubated at 37° C. for 120 min in Na—P or PBS supplemented with different concentrations of peptides. After this period the reaction mixtures were diluted 1:10 and 1:100 in the same buffer and plated on LB-Agar to determine the colony forming units (CFU). The plating were done in triplets. The colonies were counted with a colony counter (Darkfield, Quebec, Canada).
(§2) An example for the depletion of viable bacteria gives FIG. 2 showing that a time dependent killing of the bacteria during incubation occurs. The interpolation of the date gives the following order of sensitivity of the used strains B. subtilis>S. carnosus=S. epidermidis>Rhodotorula >>E. coli>Enterococcus faecium ATCC 35667. The concentration necessary to reduce the colony forming units (CFU) to 50% of the initial CFU ranges from 180 μg/ml (E. faecium) over 20 μg/ml (E. coli, S. carnosus, R. rubra) to 1 μg/ml for B. subtilis indicating a potent inhibitory effect of the used peptide.

[2] = system: E. coli transformed with the plasmid pUC18; assay: Membrane permeabilization, release of beta-galactosidase and beta-lactamase; assay type: cell-based; conditions: 37° C. for 30 min, FIG. 5
Method: The beta-galactosidase indicated the degree of the permeabilization of the inner membrane (IM) of E. coli. The permeabilization of the outer membrane was monitored by determination of released beta-Lactamase (plasmid coded) mainly present in the periplasmatic space.
To measure the relative release of beta-galactosidase a suspension of E. coli grown overnight in LB medium was washed once in phosphate buffer (10 mM, pH 7.0). Afterwards the bacteria were resuspended to a final density of app. 0.5 A600. Peptide fractions were lyophilized in 1.5 ml tubes in a speed vac concentrator and solved in 40 μl phosphate buffer. To the peptide solution a volume of 200 μl bacterial suspension was added and the incubation was performed at 37° C. for 30 min. As a control, to determine the maximum of the enzyme release, bacteria were disrupted by ultrasonic treatment (about 100 joules in 10 sec). […] The absorbance of the samples at 405 nm was measured and the increase of each absorbance was normalized to the sonified sample assuming enzymatic release of 100%.
To detect the release of beta-lactamase the supernatants of E. coli were prepared as described for the beta-galactosi-dase. […] The samples were incubated for 45 min at 37° C. in the dark and the absorbance was measured at a wavelength of 700 nm and the normalization was done with the results gained with sonified samples.

[3] = Storage of lyophilized peptide; assay type: physicochemical; conditions: room temperature
[4] = system: E. coli; assay: Preincubation experiment (determination of CFU); assay type: cell-based; conditions: incubated at 37° C. for 120 min, interpolated from FIG. 3
Method: as §1, §2

[5] = system: B. subtilis; assay: Preincubation experiment (determination of CFU); assay type: cell-based; conditions: incubated at 37° C. for 120 min, interpolated from FIG. 3
Method: as §1, §2

[6] = system: Enterococcus faecium ATCC 35667; assay: Preincubation experiment (determination of CFU); assay type: cell-based; conditions: E. faecium; incubated at 37° C. for 120 min; interpolated from FIG. 3
Method: as §1, §2

[7] = system: R. rubra; assay: Preincubation experiment (determination of CFU); assay type: cell-based, Rhodotorula rubra; conditions: incubated at 37° C. for 120 min, interpolated from FIG. 3
Method: as §1, §2

[8] = system: S. carnosus; assay type: cell-based, Staphylococcus carnosus
Method: To determine the minimal inhibitory concentration of casocidin-I under the influence of the medium strength or in the presence of bivalent cations, a dilution assay was performed in 96-well cell culture clusters. After diluting the peptide in 50 μl medium (tryptic soy broth, Sigma, Germany) with adjusted pH 7.2, ion concentrations or medium strength on one plate, the same amount of medium with appr. 2-4*10^3 bacteria in 50 μl medium were added to the diluted samples. The incubations were done overnight at 37° C. The minimal inhibitory concentration was manually read using a microscope.

[9] = system: bacteria; assay: Antibacterial / antimicrobial effect of comparison peptides; assay type: cell-based

Compound | concentration necessary to reduce the colony forming units (CFU) to 50% of the initial CFU [1] | mechanism of action: release of intracellular enzymes beta-galactosidase and beta-lactamase [2] | potency when lyophilized, storage [3] | concentration necessary to reduce the colony forming units (CFU) to 50% of the initial CFU [4] | concentration necessary to reduce the colony forming units (CFU) to 50% of the initial CFU [5] | concentration necessary to reduce the colony forming units (CFU) to 50% of the initial CFU [6] | concentration necessary to reduce the colony forming units (CFU) to 50% of the initial CFU [7] | MIC ([8]; bivalent cation 2.5 mM Ca) | MIC ([8]; bivalent cation 2.5 mM Mn) | MIC ([8]; medium strength 1 (tryptic soy broth, pH 7.2)) | antibacterial / antimicrobial effect [9]
CC[C@H](C)[C@H](NC(=O)[C@H](CCCCN)NC(=O)[C@H](CCCCN)NC(=O)[C@H](CC(C)C)NC(=O)[C@H](Cc1ccccc1)NC(=O)[C@H](CC(N)=O)NC(=O)[C@H](CC(C)C)NC(=O)[C@H](CCCNC(=N)N)NC(=O)[C@H](CC(N)=O)NC(=O)[C@H](CCCCN)NC(=O)[C@H](CCC(=O)O)NC(=O)[C@H](CCC(=O)O)NC(=O)[C@H](CCC(=O)O)NC(=O)[C@@H](NC(=O)[C@H](CC(C)C)NC(=O)[C@H](CCCCN)NC(=O)[C@@H](NC(=O)[C@@H](N)CCCCN)[C@@H](C)O)[C@@H](C)O)C(=O)N[C@@H](CO)C(=O)N[C@@H](CCC(N)=O)C(=O)N[C@@H](CCCNC(=N)N)C(=O)N[C@@H](Cc1ccc(O)cc1)C(=O)N[C@@H](CCC(N)=O)C(=O)N[C@@H](CCCCN)C(=O)N[C@@H](Cc1ccccc1)C(=O)N[C@@H](C)C(=O)N[C@@H](CC(C)C)C(=O)N1CCC[C@H]1C(=O)N[C@@H](CCC(N)=O)C(=O)N[C@@H](Cc1ccc(O)cc1)C(=O)N[C@@H](CC(C)C)C(=O)N[C@@H](CCCCN)C(=O)N[C@H](C(=O)N[C@H](C(=O)N[C@@H](Cc1ccc(O)cc1)C(=O)N[C@@H](CCC(N)=O)C(=O)N[C@@H](Cc1c[nH]cn1)C(=O)N[C@@H](CCC(N)=O)C(=O)N[C@@H](CCCCN)C(=O)O)C(C)C)[C@@H](C)O [casocidin-I] | 20 µg/mL | membrane permeabilizing effect | keeps its potency when lyophilized | 20 µg/mL | 1 µg/mL | 180 µg/mL | 20 µg/mL | no | no | no | 
QRYQ |  |  |  |  |  |  |  |  |  |  | not sufficient to gain antimicrobial properties
